Laboratory results published in BindingDB's records for patent US20260055108 (Hutchmed, 2026).

Target: T1, Menin [2-610] (UniProt O00255)
T1 construct: 2-610
T1 sequence (O00255 whole entry): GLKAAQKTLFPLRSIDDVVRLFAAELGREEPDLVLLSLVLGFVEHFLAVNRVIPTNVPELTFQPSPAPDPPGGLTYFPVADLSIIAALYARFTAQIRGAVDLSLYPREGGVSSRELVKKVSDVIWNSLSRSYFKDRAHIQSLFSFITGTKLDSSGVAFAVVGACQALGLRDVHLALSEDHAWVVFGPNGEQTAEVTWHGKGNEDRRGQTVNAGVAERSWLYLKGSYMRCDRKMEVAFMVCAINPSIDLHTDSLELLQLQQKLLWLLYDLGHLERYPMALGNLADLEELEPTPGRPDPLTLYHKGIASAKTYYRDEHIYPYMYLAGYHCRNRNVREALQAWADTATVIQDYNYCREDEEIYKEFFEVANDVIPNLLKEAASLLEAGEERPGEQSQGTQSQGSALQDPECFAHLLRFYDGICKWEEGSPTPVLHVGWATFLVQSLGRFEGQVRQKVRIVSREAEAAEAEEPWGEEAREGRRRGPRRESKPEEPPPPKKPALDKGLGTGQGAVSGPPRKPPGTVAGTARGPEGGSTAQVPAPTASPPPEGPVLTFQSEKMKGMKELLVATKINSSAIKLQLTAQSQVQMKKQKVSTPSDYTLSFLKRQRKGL
Test: Fluorescence Polarization Assay
Protocol: 4 μL of 5× test compound was added to each reaction well of the 384-well plate, and the corresponding volume of 10% DMSO was added to the control wells. Except the control wells, 8 μL of Menin protein reaction solution was added to each well. The reaction solution was incubated at room temperature for 30 minutes, and then 8 μL of MLL polypeptide reaction solution was added to each well. The final concentrations of DMSO in the test compound wells and control wells were all 2%. The 384-well plate was sealed and incubated at room temperature for 30 minutes in the dark.

IC50: 2.2 nM
Structure (SMILES): CCNC(=O)N1CCC(CN2CCC3(CC2)CN(c2ncnnc2Oc2ccc(F)cc2C(=O)N(CC)C(C)C)C3)CC1 [US20260055108, Compound 28]
